Laboratory results as given in patent US20100292231A1, “Indazole Compounds for Treating Inflammatory Disorders, Demyelinating Disorders and Cancers” (priority 2007, published 2010).

Assays:
Assay in all cases: SelectScreen kinase specificity survey
Type in all cases: biochemical
Details in all cases: estimated, abridged dose response curve, read-out: Kinase inhibitory activity EC50
[1] = molecular target: T1, BLK (Homo sapiens, UniProt P51451)
T1 construct: purchased Invitrogen (SelectScreen)
In short: (§1)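 Dose-response: 5 graded inhibitor additions per kinase, with ATP at 100 micromolar and detection by an optical reporter on a kinase-unique substrate. The sigmoid saturation fit has four parameters (Hill); EC50 is an estimate.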

[2] = molecular target: T2, CDK5/p25 (Homo sapiens, UniProt Q00535)
T2 construct: purchased Invitrogen (SelectScreen platform)
In short: as §1

[3] = molecular target: T3, CSNK1D (CK1 delta) (Homo sapiens, UniProt P48730)
T3 construct: purchased Invitrogen (SelectScreen platform)
T3 sequence (P48730 whole entry): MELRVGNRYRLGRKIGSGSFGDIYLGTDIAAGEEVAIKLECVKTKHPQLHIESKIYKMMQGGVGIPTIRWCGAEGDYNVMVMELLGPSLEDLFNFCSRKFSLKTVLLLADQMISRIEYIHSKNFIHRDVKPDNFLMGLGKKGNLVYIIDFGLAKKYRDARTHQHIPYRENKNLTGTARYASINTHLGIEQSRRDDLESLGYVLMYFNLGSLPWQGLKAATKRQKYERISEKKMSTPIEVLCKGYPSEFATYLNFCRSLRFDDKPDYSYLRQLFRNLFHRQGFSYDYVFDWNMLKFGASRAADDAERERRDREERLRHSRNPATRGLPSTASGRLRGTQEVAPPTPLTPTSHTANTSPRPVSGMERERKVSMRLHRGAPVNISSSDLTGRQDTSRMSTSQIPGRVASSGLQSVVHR
In short: as §1

[4] = molecular target: T4, GSK3A (GSK3 alpha) (Homo sapiens, UniProt P49840)
T4 construct: purchased Invitrogen (SelectScreen platform)
In short: as §1

[5] = molecular target: T5, GSK3B (GSK3 beta) (Homo sapiens, UniProt P49841)
T5 construct: purchased Invitrogen (SelectScreen platform)
T5 sequence (P49841 whole entry): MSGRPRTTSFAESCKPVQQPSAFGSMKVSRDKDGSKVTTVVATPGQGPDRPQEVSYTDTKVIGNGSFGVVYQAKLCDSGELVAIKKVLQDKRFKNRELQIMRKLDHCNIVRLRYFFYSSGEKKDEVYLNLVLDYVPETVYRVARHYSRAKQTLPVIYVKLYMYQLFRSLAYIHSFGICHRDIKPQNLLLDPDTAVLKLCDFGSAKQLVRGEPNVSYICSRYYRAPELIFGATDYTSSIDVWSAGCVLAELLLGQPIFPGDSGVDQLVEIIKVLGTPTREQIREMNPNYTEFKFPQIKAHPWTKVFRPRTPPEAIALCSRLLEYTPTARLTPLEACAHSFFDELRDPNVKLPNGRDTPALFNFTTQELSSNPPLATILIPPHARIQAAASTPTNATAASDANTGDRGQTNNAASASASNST
In short: as §1

[6] = molecular target: T6, ITK (Homo sapiens, UniProt Q08881)
T6 construct: purchased Invitrogen (SelectScreen)
T6 sequence (Q08881 whole entry): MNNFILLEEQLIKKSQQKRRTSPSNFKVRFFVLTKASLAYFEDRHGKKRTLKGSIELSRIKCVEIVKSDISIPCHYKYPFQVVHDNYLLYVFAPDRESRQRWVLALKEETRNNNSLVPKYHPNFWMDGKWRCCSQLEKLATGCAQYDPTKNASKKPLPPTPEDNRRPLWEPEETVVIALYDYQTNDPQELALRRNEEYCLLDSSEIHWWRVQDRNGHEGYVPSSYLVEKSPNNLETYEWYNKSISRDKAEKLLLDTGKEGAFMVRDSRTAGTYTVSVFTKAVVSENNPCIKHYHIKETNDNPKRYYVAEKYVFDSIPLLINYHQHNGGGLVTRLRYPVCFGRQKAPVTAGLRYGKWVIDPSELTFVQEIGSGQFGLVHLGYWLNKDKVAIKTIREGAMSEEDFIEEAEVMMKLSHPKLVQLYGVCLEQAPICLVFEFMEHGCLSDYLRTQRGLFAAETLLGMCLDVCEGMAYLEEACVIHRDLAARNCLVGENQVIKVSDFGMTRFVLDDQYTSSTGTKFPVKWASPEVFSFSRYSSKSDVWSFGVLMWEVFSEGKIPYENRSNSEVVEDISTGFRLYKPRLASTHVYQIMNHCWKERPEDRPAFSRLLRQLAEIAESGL
In short: as §1

[7] = molecular target: T7, JAK2 JH1 JH2 V617F (Homo sapiens, UniProt O60674, V617F)
T7 construct: JAK2 JH1 JH2 V617F; purchased Invitrogen (SelectScreen platform)
In short: as §1

[8] = molecular target: T8, KIT T670I (Homo sapiens, UniProt P10721, T670I)
T8 construct: purchased Invitrogen (SelectScreen platform)
In short: as §1

[9] = molecular target: T9, MAPK12 (p38 gamma) (Homo sapiens, UniProt P53778)
T9 construct: purchased Invitrogen (SelectScreen platform)
T9 sequence (P53778 whole entry): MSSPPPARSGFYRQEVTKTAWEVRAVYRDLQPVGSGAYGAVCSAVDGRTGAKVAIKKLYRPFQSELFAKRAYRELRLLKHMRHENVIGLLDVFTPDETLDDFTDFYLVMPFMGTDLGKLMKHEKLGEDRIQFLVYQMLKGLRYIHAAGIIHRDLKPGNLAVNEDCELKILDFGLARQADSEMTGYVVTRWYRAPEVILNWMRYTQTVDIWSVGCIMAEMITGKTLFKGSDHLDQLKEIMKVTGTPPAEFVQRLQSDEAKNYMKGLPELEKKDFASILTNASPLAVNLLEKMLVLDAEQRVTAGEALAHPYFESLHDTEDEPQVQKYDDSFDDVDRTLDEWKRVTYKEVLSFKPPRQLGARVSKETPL
In short: as §1

[10] = molecular target: T10, MAPK3 (ERK1) (Homo sapiens, UniProt P27361)
T10 construct: purchased Invitrogen, Inc. (SelectScreen service)
In short: as §1

[11] = molecular target: T11, MARK2 (Homo sapiens, UniProt Q7KZI7)
T11 construct: purchased Invitrogen, Inc. (SelectScreen platform)
T11 sequence (Q7KZI7 whole entry): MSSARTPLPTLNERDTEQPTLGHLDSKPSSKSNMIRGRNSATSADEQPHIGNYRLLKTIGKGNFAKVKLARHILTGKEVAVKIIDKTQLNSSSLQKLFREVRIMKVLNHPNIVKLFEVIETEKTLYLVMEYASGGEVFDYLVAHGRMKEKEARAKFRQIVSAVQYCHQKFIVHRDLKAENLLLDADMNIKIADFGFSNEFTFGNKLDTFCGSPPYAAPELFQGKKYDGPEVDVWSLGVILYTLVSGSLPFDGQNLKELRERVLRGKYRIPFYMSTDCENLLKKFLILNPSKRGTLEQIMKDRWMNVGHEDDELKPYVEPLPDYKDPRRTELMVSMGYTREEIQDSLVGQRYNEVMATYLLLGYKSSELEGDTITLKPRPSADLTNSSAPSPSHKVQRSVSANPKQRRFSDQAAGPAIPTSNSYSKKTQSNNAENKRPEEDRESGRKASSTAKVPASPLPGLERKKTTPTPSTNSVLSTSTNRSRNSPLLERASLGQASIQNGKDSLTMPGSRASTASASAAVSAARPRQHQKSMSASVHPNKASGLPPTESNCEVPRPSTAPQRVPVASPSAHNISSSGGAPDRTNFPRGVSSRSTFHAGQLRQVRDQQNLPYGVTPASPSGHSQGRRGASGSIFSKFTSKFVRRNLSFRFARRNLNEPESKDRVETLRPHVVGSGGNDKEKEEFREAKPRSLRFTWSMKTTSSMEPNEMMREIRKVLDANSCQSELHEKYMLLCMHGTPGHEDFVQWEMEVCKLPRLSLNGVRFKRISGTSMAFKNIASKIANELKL
In short: as §1

[12] = molecular target: T12, PAK2 (PAK65) (Homo sapiens, UniProt Q13177)
T12 construct: purchased Invitrogen (SelectScreen platform)
In short: as §1

[13] = molecular target: T13, PDK1 (Homo sapiens, UniProt O15530)
T13 construct: purchased Invitrogen (SelectScreen platform)
T13 sequence (O15530 whole entry): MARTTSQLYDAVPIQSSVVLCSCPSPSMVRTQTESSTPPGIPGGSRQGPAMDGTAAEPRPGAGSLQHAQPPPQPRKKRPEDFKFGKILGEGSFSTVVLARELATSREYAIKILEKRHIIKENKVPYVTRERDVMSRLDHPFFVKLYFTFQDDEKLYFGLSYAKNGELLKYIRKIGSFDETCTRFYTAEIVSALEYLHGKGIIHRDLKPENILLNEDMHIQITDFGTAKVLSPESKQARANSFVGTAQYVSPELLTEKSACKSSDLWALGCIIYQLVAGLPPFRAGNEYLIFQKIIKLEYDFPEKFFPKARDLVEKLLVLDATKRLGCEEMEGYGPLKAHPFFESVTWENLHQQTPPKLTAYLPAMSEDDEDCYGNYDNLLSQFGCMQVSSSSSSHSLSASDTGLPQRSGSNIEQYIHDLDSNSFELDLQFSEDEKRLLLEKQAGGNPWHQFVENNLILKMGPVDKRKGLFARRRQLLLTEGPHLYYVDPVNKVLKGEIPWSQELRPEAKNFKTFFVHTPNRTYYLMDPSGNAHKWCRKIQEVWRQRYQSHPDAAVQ
In short: as §1

[14] = molecular target: T14, PLK3 (Homo sapiens, UniProt Q9H4B4)
T14 construct: purchased Invitrogen, Inc. (SelectScreen service)
T14 sequence (Q9H4B4 whole entry): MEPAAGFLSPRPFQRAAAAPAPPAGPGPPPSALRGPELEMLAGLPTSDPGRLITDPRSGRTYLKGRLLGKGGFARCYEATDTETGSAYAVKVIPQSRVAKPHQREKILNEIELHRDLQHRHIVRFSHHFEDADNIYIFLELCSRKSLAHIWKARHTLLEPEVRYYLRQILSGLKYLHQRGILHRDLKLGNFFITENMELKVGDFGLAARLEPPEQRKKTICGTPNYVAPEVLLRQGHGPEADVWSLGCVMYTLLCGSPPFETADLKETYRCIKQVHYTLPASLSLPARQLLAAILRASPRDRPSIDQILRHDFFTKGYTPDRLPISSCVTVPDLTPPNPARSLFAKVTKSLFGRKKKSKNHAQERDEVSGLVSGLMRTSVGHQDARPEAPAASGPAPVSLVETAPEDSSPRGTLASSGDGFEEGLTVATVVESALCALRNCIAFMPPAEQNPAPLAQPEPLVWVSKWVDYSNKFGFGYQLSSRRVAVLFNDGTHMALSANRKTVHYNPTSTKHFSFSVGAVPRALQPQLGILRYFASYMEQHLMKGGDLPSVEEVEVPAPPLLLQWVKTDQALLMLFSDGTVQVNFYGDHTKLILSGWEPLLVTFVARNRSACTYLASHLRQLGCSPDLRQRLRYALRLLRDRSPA
In short: as §1

[15] = molecular target: T15, PRKCD (PKC delta) (Homo sapiens, UniProt Q05655)
T15 construct: purchased Invitrogen, Inc. (SelectScreen platform)
In short: as §1

[16] = molecular target: T16, PRKCE (PKC epsilon) (Homo sapiens, UniProt Q02156)
T16 construct: purchased Invitrogen, Inc. (SelectScreen platform)
In short: as §1

[17] = molecular target: T17, PRKG1 (PKG1) (Homo sapiens, UniProt Q13976)
T17 construct: purchased Invitrogen, Inc. (SelectScreen platform)
T17 sequence (Q13976 whole entry): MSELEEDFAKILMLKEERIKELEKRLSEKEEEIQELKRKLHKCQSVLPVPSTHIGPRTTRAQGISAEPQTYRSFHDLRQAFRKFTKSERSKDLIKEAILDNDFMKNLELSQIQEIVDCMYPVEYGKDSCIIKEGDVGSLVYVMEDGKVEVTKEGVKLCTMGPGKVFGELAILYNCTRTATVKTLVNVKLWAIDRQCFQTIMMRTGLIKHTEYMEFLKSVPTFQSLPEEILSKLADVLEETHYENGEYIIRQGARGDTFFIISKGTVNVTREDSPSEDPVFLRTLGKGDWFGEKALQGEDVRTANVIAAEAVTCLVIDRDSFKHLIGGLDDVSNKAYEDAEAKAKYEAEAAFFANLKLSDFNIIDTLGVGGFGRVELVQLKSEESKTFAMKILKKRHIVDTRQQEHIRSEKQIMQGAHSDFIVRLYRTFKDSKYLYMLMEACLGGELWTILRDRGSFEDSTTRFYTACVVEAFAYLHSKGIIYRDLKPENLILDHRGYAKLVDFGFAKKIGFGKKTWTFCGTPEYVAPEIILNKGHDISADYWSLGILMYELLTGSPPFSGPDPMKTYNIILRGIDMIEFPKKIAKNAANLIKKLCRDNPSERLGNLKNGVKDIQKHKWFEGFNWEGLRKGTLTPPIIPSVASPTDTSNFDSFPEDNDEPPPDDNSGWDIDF
In short: as §1

[18] = molecular target: T18, PRKG2 (PKG2) (Homo sapiens, UniProt Q13237)
T18 construct: purchased Invitrogen, Inc. (SelectScreen platform)
In short: as §1

[19] = molecular target: T19, SGK (SGK1) (Homo sapiens, UniProt O00141)
T19 construct: purchased Invitrogen, Inc. (SelectScreen platform)
In short: as §1

[20] = molecular target: T20, STK25 (YSK1) (Homo sapiens, UniProt O00506)
T20 construct: purchased Invitrogen (SelectScreen platform)
T20 sequence (O00506 whole entry): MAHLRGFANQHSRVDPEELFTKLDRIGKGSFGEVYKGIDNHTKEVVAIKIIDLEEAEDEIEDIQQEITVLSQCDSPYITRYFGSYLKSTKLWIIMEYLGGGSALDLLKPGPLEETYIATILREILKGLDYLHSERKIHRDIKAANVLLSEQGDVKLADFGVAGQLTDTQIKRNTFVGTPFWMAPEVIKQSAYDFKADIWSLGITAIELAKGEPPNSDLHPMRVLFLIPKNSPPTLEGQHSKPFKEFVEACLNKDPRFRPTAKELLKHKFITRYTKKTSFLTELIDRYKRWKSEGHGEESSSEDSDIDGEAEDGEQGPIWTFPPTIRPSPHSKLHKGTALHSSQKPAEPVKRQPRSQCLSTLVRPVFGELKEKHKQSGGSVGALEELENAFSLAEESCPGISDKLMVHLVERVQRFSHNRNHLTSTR
In short: as §1

[21] = molecular target: T21, STK4 (MST1) (Homo sapiens, UniProt Q13043)
T21 construct: purchased Invitrogen (SelectScreen platform)
In short: as §1

Structure (SMILES) | EC50 [1] [µM] | EC50 [2] [µM] | EC50 [3] [µM] | EC50 [4] [µM] | EC50 [5] [µM] | EC50 [6] [µM] | EC50 [7] [µM] | EC50 [8] [µM] | EC50 [9] [µM] | EC50 [10] [µM] | EC50 [11] [µM] | EC50 [12] [µM] | EC50 [13] [µM] | EC50 [14] [µM] | EC50 [15] [µM] | EC50 [16] [µM] | EC50 [17] [µM] | EC50 [18] [µM] | EC50 [19] [µM] | EC50 [20] [µM] | also measured
CN(C)CCCNc1ccc2ncn3c4ccc5[nH]ncc5c4c(=O)c1c23 [Compound (IV)] | 0.481 | 1.58 | 4.8 | 3.62 | > 5 | 0.637 | > 5 | > 5 | > 5 | > 5 | 3.49 | > 5 | 2.9 | > 5 | > 5 | 2.52 | > 5 | 1.91 | 3.45 | > 5 | EC50 [21]: 2.17 µM
CCN(CC)CCNc1ccc2ncn3c4ccc(O)cc4c(=O)c1c23 [Symadex, 5-(2-(diethylamino)ethylamino)-8-hydroxy-6H-imidazo[4,5,1-de]acridin-6-one, reference compound] | 0.22 | > 5 | 0.673 | > 5 | > 5 | > 5 | > 5 | > 5 | > 5 | > 5 | 2.02 | > 5 | > 5 | > 5 | > 5 | > 5 | > 5 | 2.85 | 2.71 | > 5 | EC50 [21]: > 5 µM
